Data: US20240425512A1, “NITROGEN-CONTAINING HETEROCYCLIC COMPOUND, PHARMACEUTICAL COMPOSITION THEREOF AND APPLICATION THEREOF” (280 Bio, Inc., priority 2023, published 2024)
Read-outs that look alike come from different tables or passages of the source.

What was measured:
Format in all cases: cell-based
[1] = tested on: LS513 colon cancer cell with KRAS G12D mutation; assay: Proliferation inhibition on RAS cell lines measured by CTG, LS513; details: LS513 cells, incubated for 6 days, CellTiter Glo
From the text: (§1) NCI-H358 is a human non-small cell lung cancer cell line with KRAS G12C mutation; AGS is a gastric cancer cell line with KRAS G12D mutation; SW620 is a colon cancer cell with KRAS G12V mutation; NCI-H460 is a non-small cell lung cancer cell with KRAS Q61H mutation; MKN1 is a wild-type gastric cancer cell with KRAS-amplified; LS513 is a colon cancer cell with KRAS G12D mutation; LoVo is a colon cancer cell with KRAS G13D mutation; NCI-H441 is a lung cancer cell with KRAS G12V mutation, and Capan-2 is a pancreatic cancer cell with KRAS G12V mutation.
(§2) The proliferation inhibitory effect of the compounds on various mutations was evaluated by determining the proliferation inhibitory activity of the compounds on these cell lines.
(§3) The assay was conducted on either 384-well plates or 96-well plates. The procedures are as follows:
(§4) The cell suspensions were added to 384- or 96-well plates (384-well plate: 50 μL; 96-well plate: 100 μL) except for peripheral wells. The plates were placed in a carbon dioxide incubator overnight. NCI-H358, AGS, NCI-H460, MKN-1, LS513, LoVo, and NCI-H441 were placed in a 5%, 370 carbon dioxide incubator overnight, and SW620 was placed in a 0%, 370 carbon dioxide incubator overnight. The HPD300 micro-dosing instrument was used to add the corresponding concentration of compound to each well (9-10 concentration gradients of compound were obtained by 3-fold dilution). Cell plates were incubated in a carbon dioxide incubator for 5-6 days. NCI-H358, AGS, NCI-H460 and MKN-1 were incubated at 5%, 37° incubator and SW620 was incubated at 0%, 370 incubator. On the day of plate measurement, the 384- or 96-well plates were first equilibrated at room temperature for 10-30 min, then CellTiter Glo reagent (384-well plate: 25 μL; 96-well plate: 100 μL) was added to the 384- or 96-well plate, shaken for 10 min away from light, and incubated for 10 min. The plates were placed into Victor NIVO or ENVIDION reader plates, and XLFit was utilized to plot the pharmacodynamic inhibition curve and calculate the IC50 value. “IC50>10 μM” is denoted by “*”, “10 μM≥IC50≥1 μM” is denoted by “**”, and “1 μM≥IC50>100 nM” is denoted by “***”, “IC50<100 nM” is denoted by “****”

GP2D cells = assay: Proliferation inhibition on RAS cell lines measured by CTG, GP2D; details: CellTiter Glo
Method: as §2, §3, §4

[2] = tested on: SW620 colon cancer cell with KRAS G12V mutation; assay: Proliferation inhibition on RAS cell lines measured by CTG, SW620; details: Homo sapiens, SW-620, 144 h; Table 2; SW620 cells, incubated for 6 days, CellTiter Glo; read-out: IC50 (SW620^c)
From the text: as §1, §2, §3, §4

[3] = tested on: NCI-H441 lung cancer cell with KRAS G12V mutation; assay: Proliferation inhibition on RAS cell lines measured by CTG, NCI-H441; details: Homo sapiens, NCI-H441, 144 h, Table 2; NCI-H441 cells, incubated for 6 days, CellTiter Glo
From the text: as §1, §2, §3, §4

[4] = Homo sapiens, LS-513, 144 h, Table 3, read-out: IC50 (LS513^k)
[5] = 144 h, Table 3, incubated for 6 days, read-out: IC50 (GP2D^l)
[6] = Homo sapiens, LS-513, 144 h, Table 2, read-out: IC50 (LS513^f)
[7] = 144 h, Table 2, incubated for 6 days, read-out: IC50 (GP2D^j)
[8] = Table 3, read-out: IC50 (LS513^k)
[9] = Table 3, incubated for 6 days, read-out: IC50 (GP2D^l)

Compound	IC50 [1, 6]	IC50 [1, 4]	IC50 (GP2D cells; [5])	also measured
C#Cc1c(F)ccc2cc(O)cc(-c3ncc4c(N5CCCCCN5)nc(OCC56COC(C5)C6)nc4c3F)c12 [Compound 137]		100 to 1000 nM	100 to 1000 nM	
C#Cc1c(F)ccc2cc(OC(=O)NCCOC)cc(-c3ncc4c(N5CCCCCN5)nc(OC[C@@]56CCCN5C[C@H](F)C6)nc4c3F)c12 [Compound 93]		< 100 nM	< 100 nM	
C#Cc1c(F)ccc2cc(O)cc(-c3ncc4c(N5CC(O)CCCN5)nc(OC[C@@]56CCCN5C[C@H](F)C6)nc4c3F)c12 (stereo partly drawn) [Compound 39]				IC50 [2]: 1000 to 10000 nM
C#Cc1c(F)ccc2cc(OC(=O)N3CCC(N4CCCCC4)CC3)cc(-c3ncc4c(N5CCCCCN5)nc(OC[C@@]56CCCN5C[C@H](F)C6)nc4c3F)c12 [Compound 73]		100 to 1000 nM	100 to 1000 nM	
C#Cc1c(F)ccc2cc(OC(=O)N3CCOCC3)cc(-c3ncc4c(N5CCCCCN5)nc(OC[C@@]56CCCN5C[C@H](F)C6)nc4c3F)c12 [Compound 90]		< 100 nM	< 100 nM	
C#Cc1c(F)ccc2cc(O)cc(-c3ncc4c(N5CCCC(O)CN5)nc(OC[C@@]56CCCN5C[C@H](F)C6)nc4c3F)c12 (stereo partly drawn) [Compound 38]				IC50 [2]: 1000 to 10000 nM
C#Cc1c(F)ccc2cc(O)cc(-c3ncc4c(N5CCCCCN5)nc(OCC56CCCN5C(COc5cc(C(F)(F)F)ncn5)CC6)nc4c3F)c12 (stereo not drawn) [Compound 60]	< 100 nM			IC50 (GP2D cells; [7]): < 100 nM
C/C=C\c1c(Cl)cc2[nH]ncc2c1-c1c(F)cc2c(N3CCCCCN3)nc(OC[C@@]34CCCN3C[C@H](F)C4)nc2c1F [Compound 50]	100 to 1000 nM			IC50 [2]: 100 to 1000 nM
C#Cc1c(F)ccc2cc(OC(=O)NCCCCCCCCCCCCCCCC)cc(-c3ncc4c(N5CCCCCN5)nc(OC[C@@]56CCCN5C[C@H](F)C6)nc4c3F)c12 [Compound 101]		< 100 nM	< 100 nM	
C#Cc1c(F)ccc2cc(OC(=O)c3cc(F)c(F)c(F)c3)cc(-c3ncc4c(N5CCCCCN5)nc(OC[C@@]56CCCN5C[C@H](F)C6)nc4c3F)c12 [Compound 126]				IC50 [1, 8]: < 100 nM; IC50 (GP2D cells; [9]): < 100 nM
CCc1c(F)ccc2c(F)c(O)cc(-c3ncc4c(N5CCCCCN5)nc(OC[C@@]56CCCN5C[C@H](F)C6)nc4c3F)c12 [Compound 125]				IC50 [1, 8]: 100 to 1000 nM; IC50 (GP2D cells; [9]): 100 to 1000 nM
C#Cc1c(F)ccc2cc(OC(=O)NCCCC)cc(-c3ncc4c(N5CCCCCN5)nc(OC[C@@]56CCCN5C[C@H](F)C6)nc4c3F)c12 [Compound 94]		< 100 nM	< 100 nM	
C#Cc1c(F)ccc2cc(O)cc(-c3ncc4c(N5CCCCCN5)nc(OCC5(C)CN(C)CCC5CF)nc4c3F)c12 (stereo not drawn) [Compound 150]		< 100 nM	< 100 nM	
C#Cc1c(F)ccc2cc(O)cc(-c3ncc4c(N5CCCN5)nc(OC[C@@]56CCCN5C[C@H](F)C6)nc4c3F)c12 [Compound 18]	1000 to 10000 nM			IC50 [3]: 1000 to 10000 nM
C#Cc1c(F)ccc2cc(O)cc(-c3ncc4c(N5CCCCCN5)nc(OC[C@@]56CC[C@H](c7cc(F)c(F)c(F)c7)N5C[C@H](F)C6)nc4c3F)c12 [Compound 103]				IC50 [1, 8]: < 100 nM; IC50 (GP2D cells; [9]): < 100 nM
C#Cc1c(F)ccc2cc(OC(=O)N[C@H](C(=O)O)[C@@H](C)CC)cc(-c3ncc4c(N5CCCCCN5)nc(OC[C@@]56CCCN5C[C@H](F)C6)nc4c3F)c12 [Compound 96]				IC50 [1, 8]: < 100 nM; IC50 (GP2D cells; [9]): < 100 nM

More lines, main results first:

IC50 [1, 6]	Compound	IC50 [1, 4]	IC50 (GP2D cells; [5])	also measured
< 100 nM	C#Cc1c(F)ccc2cc(O)cc(-c3ncc4c(N5CCCCCN5C(=O)C(F)(F)F)nc(OC[C@@]56CCCN5C[C@H](F)C6)nc4c3F)c12 [Compound 68]			IC50 (GP2D cells; [7]): < 100 nM
< 100 nM	[2H]C([2H])(Oc1nc(N2CCCCCN2)c2cnc(-c3cc(O)cc4ccc(F)c(C#C)c34)c(F)c2n1)[C@@]12CCCN1C[C@H](F)C2 [Compound 82]			IC50 (GP2D cells; [7]): < 100 nM
< 100 nM	C#Cc1c(F)ccc2cc(O)cc(-c3ncc4c(N5CCCCCN5)nc(OCC56CCCN5CC(F)(F)C6)nc4c3F)c12 (stereo not drawn) [Compound 37]			IC50 [2]: < 100 nM
